Test results as given in ChEMBL document CHEMBL1159227, “Piperogalin, a new prenylated diphenol from Peperomia galioides” (1995).
Activity calls are given as the source filed them. The rule behind the calls is not given here.

Tests used:
[1] = test system: Leishmania donovani; experiment: Antileishmanial activity against Leishmania donovani PP75 promastigotes assessed as total lysis of parasites at 100 ug/ml after 24 hrs at 28 degC; format: functional, organism-based
[2] = test system: Trypanosoma cruzi; experiment: Antitrypanosomal activity against Trypanosoma cruzi Y trypomastigotes assessed as lysis of trypomastigotes at 250 ug/ml after 24 hrs at 4 degC; format: functional
[3] = test system: Leishmania braziliensis; experiment: Antileishmanial activity against Leishmania braziliensis 2903 promastigotes assessed as immobilized parasites at 100 ug/ml after 24 hrs at 28 degC; format: functional, organism-based
[4] = test system: Leishmania amazonensis; experiment: Antileishmanial activity against Leishmania amazonensis H142 promastigotes assessed as total lysis of parasites at 100 ug/ml after 24 hrs at 28 degC; format: functional, organism-based
[5] = test system: Leishmania braziliensis; experiment: Antileishmanial activity against Leishmania braziliensis 2903 promastigotes assessed as total lysis of parasites at 25 ug/ml after 24 hrs at 28 degC; format: functional, organism-based
[6] = test system: Leishmania donovani; experiment: Antileishmanial activity against Leishmania donovani PP75 promastigotes assessed as immobilized parasites at 10 ug/ml after 24 hrs at 28 degC; format: functional, organism-based
[7] = test system: Leishmania amazonensis; experiment: Antileishmanial activity against Leishmania amazonensis promastigotes assessed as total lysis of parasites at 50 ug/ml after 24 hrs at 28 degC; format: functional, organism-based
[8] = test system: Leishmania amazonensis; experiment: Antileishmanial activity against Leishmania amazonensis promastigotes assessed as immobilized parasites at 10 ug/ml after 24 hrs at 28 degC; format: functional, organism-based
[9] = test system: Leishmania donovani; experiment: Antileishmanial activity against Leishmania donovani PP75 promastigotes assessed as total lysis of parasites at 50 ug/ml after 24 hrs at 28 degC; format: functional, organism-based
[10] = test system: Leishmania braziliensis; experiment: Antileishmanial activity against Leishmania braziliensis 2903 promastigotes assessed as total lysis of parasites at 50 ug/ml after 24 hrs at 28 degC; format: functional, organism-based
[11] = test system: Leishmania donovani; experiment: Antileishmanial activity against Leishmania donovani PP75 promastigotes assessed as total lysis of parasites at 25 ug/ml after 24 hrs at 28 degC; format: functional, organism-based
[12] = test system: Leishmania amazonensis; experiment: Antileishmanial activity against Leishmania amazonensis promastigotes assessed as total lysis of parasites at 25 ug/ml after 24 hrs at 28 degC; format: functional, organism-based
[13] = test system: Leishmania braziliensis; experiment: Antileishmanial activity against Leishmania braziliensis 2903 promastigotes assessed as immobilized parasites at 10 ug/ml after 24 hrs at 28 degC; format: functional, organism-based
[14] = test system: Leishmania braziliensis; experiment: Antileishmanial activity against Leishmania braziliensis 2903 promastigotes assessed as total lysis of parasites at 100 ug/ml after 24 hrs at 28 degC; format: functional, organism-based
[15] = test system: Leishmania amazonensis; experiment: Antileishmanial activity against Leishmania amazonensis promastigotes assessed as lysis of parasites at 10 ug/ml after 24 hrs at 28 degC; format: functional
[16] = test system: Leishmania donovani; experiment: Antileishmanial activity against Leishmania donovani PP75 promastigotes assessed as lysis of parasites at 10 ug/ml after 24 hrs at 28 degC; format: functional
[17] = test system: Leishmania braziliensis; experiment: Antileishmanial activity against Leishmania braziliensis 2903 promastigotes assessed as lysis of parasites at 10 ug/ml after 24 hrs at 28 degC; format: functional

Row | SMILES | Activity [1] | Activity [2] | Activity [3] | Activity [4] | Activity [5] | Activity [6] | Activity [7] | Activity [8] | Activity [9] | Activity [10] | Activity [11] | Activity [12] | Activity [13] | Activity [14] | Activity [15] | Activity [16] | Activity [17]
1 | CC(C)=CCC/C(C)=C/CC/C(C)=C/Cc1c(O)cc(C)c(C(=O)O)c1O [GRIFOLIC ACID] | Active | 0% | Active | Active |  |  |  |  |  |  |  |  |  |  |  |  | 
2 | CC(C)=CCC/C(C)=C/CC/C(C)=C/Cc1c(O)cc(C)cc1O [GRIFOLIN] | Active | 68% |  | Active | Active | Active | Active | Active | Active | Active | Active | Active | Active | Active |  |  | 
3 | CC(C)=CCC/C(C)=C/Cc1c(O)cc(C)c(CC=C(C)C)c1O [PIPEROGALIN] | Active | 42% |  | Active | Active |  | Active |  | Active |  | Active | Active |  | Active | >90% | >90% | >90%
